Here are results for 80 molecules from patent publication US10076519B2 (CYTOKINETICS, INC., priority 2010, dated 2018).

The first assay relates to rabbit skeletal myofibrils (fast skeletal myofibrils). In words: Activation of fast skeletal myofibrils (PUMA assay, PK/LDH-coupled ATPase at pCa25). The format is biochemical. The note with it: median AC1.4 class, procedure of Example 39. In outline:
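ATPase activity of Triton-washed rabbit skeletal myofibrils, roughly 90% fast fibres, tracked by NADH loss at 340 nm through a PK/LDH-coupled ADP-regenerating system. Calcium set to 25% of maximal activity (pCa25), in PIPES 12 mM pH 6.8 with 2 mM MgCl2 and 1 mM DTT; AC1.4 reported.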
As to `CC(=O)c1ccc(NCC2(c3ncccc3F)CCC2)nn1`, the “Mean AC1.4” value is given as “D (D=>20 uM)”.

`NC(=O)c1cnn(Cc2ccc(NC3(c4ncccc4F)CCC3)nn2)c1`: the “Mean AC1.4” value was “D (D=>20 uM)”.

On to `CC(=O)N1CC(c2ccc(NCC3(c4ncccc4F)CCC3)nn2)C1`, for which the “Mean AC1.4” value is given as “D (D=>20 uM)”.

Regarding `CC(C)(O)C(N)c1ccc(-c2ccc(NCC3(c4ncccc4F)CCC3)nn2)cc1` (centres unmarked), the “Mean AC1.4” value is given as “D (D=>20 uM)”.

`CC(C)(O)c1ncccc1-c1ccc(NCC2(c3ncccc3F)CCC2)nn1`: the “Mean AC1.4” value is “D (D=>20 uM)”.

Regarding `O=C(O)C1CN=C(c2ccc(NCC3(c4ncccc4F)CCC3)nn2)N1` (centres unmarked), the “Mean AC1.4” value was “D (D=>20 uM)”.

With `NC(=O)c1coc(-c2ccc(NCC3(c4ncccc4F)CCC3)nn2)n1`, the “Mean AC1.4” value is recorded as “D (D=>20 uM)”.

On to `NC(=O)c1cnc(-c2ccc(NCC3(c4ncccc4F)CCC3)nn2)o1`, for which the “Mean AC1.4” value is “B (B=1-10 uM)”.

Regarding `NC(=O)c1csc(-c2ccc(NCC3(c4ncccc4F)CCC3)nn2)n1`, the “Mean AC1.4” value is listed as “D (D=>20 uM)”.

As for `NC(=O)C1CN=C(c2ccc(NCC3(c4ncccc4F)CCC3)nn2)N1` (centres unmarked), the “Mean AC1.4” value is “D (D=>20 uM)”.

For the molecule `CC(C)(O)c1ccc(NCC2(c3ncccc3F)CCC2)nn1`, the “Mean AC1.4” value is listed as “D (D=>20 uM)”.

Consider `NC(=O)CNc1ncc(-c2ccc(NCC3(c4ncccc4F)CCC3)nn2)cn1`, for which the “Mean AC1.4” value was “C (C=10-20 uM)”.

With `NC(=O)C(N)c1cccc(-c2ccc(NCC3(c4ncccc4F)CCC3)nn2)c1` (centres unmarked), the “Mean AC1.4” value was “C (C=10-20 uM)”.

For the molecule `CC(C)(CO)Nc1ccc(-c2cccc(C(N)=O)c2)nn1`, the “Mean AC1.4” value is “D (D=>20 uM)”.

Turning to `NC(=O)c1cccc(-c2ccc(NC3(c4ccccc4F)CCC3)nn2)c1`, the “Mean AC1.4” value was “A (A=<1 uM)”.

For the molecule `NC(=O)c1ccc(F)c(-c2ccc(NC3(c4ncccc4Cl)CCC3)nn2)c1`, the “Mean AC1.4” value was “A (A=<1 uM)”.

Consider `NC(=O)c1cccc(-c2ccc(NC3(c4ncccc4F)CCC3)nn2)c1`, for which the “Mean AC1.4” value is “B (B=1-10 uM)”.

Take `NC(=O)c1cccc(-c2ccc(NC3(c4cccc(F)c4)CCC3)nn2)c1`: the “Mean AC1.4” value is “B (B=1-10 uM)”.

With `NC(=O)c1cccc(-c2ccc(NCC3(c4ncccc4F)CC(F)(F)C3)nn2)c1`, the “Mean AC1.4” value is “B (B=1-10 uM)”.

For the molecule `NC(=O)c1cccc(-c2ccc(NC3(c4ccc(Cl)cc4)CCC3)nn2)c1`, the “Mean AC1.4” value is “B (B=1-10 uM)”.

On to `N#Cc1ccc(C2(Nc3ccc(-c4cccc(C(N)=O)c4)nn3)CCC2)cc1`, for which the “Mean AC1.4” value is reported as “D (D=>20 uM)”.

Consider `NC(=O)c1cccc(-c2ccc(NC3(c4ccc(F)cc4)CCC3)nn2)c1`, for which the “Mean AC1.4” value is given as “A (A=<1 uM)”.

Turning to `COc1ccnc(C2(Nc3ccc(-c4cccc(C(N)=O)c4)nn3)CCC2)c1`, the “Mean AC1.4” value is listed as “D (D=>20 uM)”.

On to `NC(=O)c1cccc(-c2ccc(NC3(c4ccc(F)cn4)CCC3)nn2)c1`, for which the “Mean AC1.4” value was “B (B=1-10 uM)”.

For the molecule `NC(=O)c1cc(-c2ccc(NCC3(c4ncccc4F)CCC3)nn2)n[nH]1`, the “Mean AC1.4” value is recorded as “B (B=1-10 uM)”.

On to `NC(=O)c1cc(-c2ccc(NCC3(c4ncccc4F)CCC3)nn2)no1`, for which the “Mean AC1.4” value is on record as “A (A=<1 uM)”.

As for `NC(=O)c1ncccc1-c1ccc(NCC2(c3ncccc3F)CCC2)nn1`, the “Mean AC1.4” value is “C (C=10-20 uM)”.

Consider `N#Cc1ncccc1-c1ccc(NCC2(c3ncccc3F)CCC2)nn1`, for which the “Mean AC1.4” value was “C (C=10-20 uM)”.

For the molecule `NC(=O)N1CC(c2ccc(NCC3(c4ncccc4F)CCC3)nn2)C1`, the “Mean AC1.4” value was “D (D=>20 uM)”.

Regarding `Cn1nc(-c2ccc(NCC3(c4ncccc4F)CCC3)nn2)cc1C(N)=O`, the “Mean AC1.4” value is “B (B=1-10 uM)”.

Consider `NC(=O)c1cccc(-c2ccc(NC3(c4ccccc4)CCC3)nn2)c1`, for which the “Mean AC1.4” value is given as “B (B=1-10 uM)”.

As for `N#Cc1cc(-c2ccc(NC3(c4ccc(F)cc4)CCC3)nn2)ccn1`, the “Mean AC1.4” value is listed as “B (B=1-10 uM)”.

`NC(=O)c1cc(-c2ccc(NC3(c4ccc(F)cc4)CCC3)nn2)ccn1`: the “Mean AC1.4” value is reported as “B (B=1-10 uM)”.

`NC(=O)c1nc(-c2ccc(NCC3(c4ncccc4F)CCC3)nn2)c[nH]1`: the “Mean AC1.4” value is on record as “C (C=10-20 uM)”.

With `Cn1cc(-c2ccc(NCC3(c4ncccc4F)CCC3)nn2)nc1C(N)=O`, the “Mean AC1.4” value is given as “D (D=>20 uM)”.

In the case of `COc1cc(-c2ccc(NCC3(c4ncccc4F)CCC3)nn2)ccc1C(N)=O`, the “Mean AC1.4” value is recorded as “B (B=1-10 uM)”.

As for `COc1cc(-c2ccc(NCC3(c4ncccc4F)CCC3)nn2)ccc1C(=O)O`, the “Mean AC1.4” value is recorded as “D (D=>20 uM)”.

Consider `NC(=O)c1ccc(-c2ccc(NCC3(c4ncccc4F)CCC3)nn2)cc1O`, for which the “Mean AC1.4” value is on record as “B (B=1-10 uM)”.

Consider `NC(=O)c1ccc(F)c(-c2ccc(NC3(c4ncccc4F)CCC3)nn2)c1`, for which the “Mean AC1.4” value was “B (B=1-10 uM)”.

In the case of `NC(=O)c1ccc(F)c(-c2ccc(NC3(c4ccc(F)cc4)CCC3)nn2)c1`, the “Mean AC1.4” value is “A (A=<1 uM)”.

With `O=C1Cc2cc(-c3ccc(NCC4(c5ncccc5F)CCC4)nn3)ccc2N1`, the “Mean AC1.4” value is reported as “B (B=1-10 uM)”.

For `O=c1[nH][nH]c2ccc(-c3ccc(NCC4(c5ncccc5F)CCC4)nn3)cc12`, the “Mean AC1.4” value is given as “A (A=<1 uM)”.

Regarding `NC(=O)c1ncc(-c2ccc(NCC3(c4ncccc4F)CCC3)nn2)o1`, the “Mean AC1.4” value is “B (B=1-10 uM)”.

As to `NC(=O)c1cc(-c2ccc(NCC3(c4ncccc4F)CCC3)nn2)on1`, the “Mean AC1.4” value was “B (B=1-10 uM)”.

On to `O=C(O)c1cc(-c2ccc(NCC3(c4ncccc4F)CCC3)nn2)on1`, for which the “Mean AC1.4” value is “D (D=>20 uM)”.

As for `NC(=O)c1noc(-c2ccc(NCC3(c4ncccc4F)CCC3)nn2)n1`, the “Mean AC1.4” value is recorded as “B (B=1-10 uM)”.

In the case of `COc1ccc(-c2ccc(NCC3(c4ncccc4F)CCC3)nn2)cc1C(N)=O`, the “Mean AC1.4” value was “B (B=1-10 uM)”.

Consider `CC(C)n1[nH]c(=O)c2cc(-c3ccc(NCC4(c5ncccc5F)CCC4)nn3)ccc21`, for which the “Mean AC1.4” value was “C (C=10-20 uM)”.

Consider `CC(C)n1[nH]c2ccc(-c3ccc(NCC4(c5ncccc5F)CCC4)nn3)cc2c1=O`, for which the “Mean AC1.4” value is given as “B (B=1-10 uM)”.

Turning to `NC(=O)c1cc(-c2ccc(NCC3(c4ncccc4F)CCC3)nn2)ccc1O`, the “Mean AC1.4” value was “A (A=<1 uM)”.

As for `Cn1nc(C(N)=O)cc1-c1ccc(NCC2(c3ncccc3F)CCC2)nn1`, the “Mean AC1.4” value is reported as “B (B=1-10 uM)”.

Consider `COc1ccc(-c2ccc(NCC3(c4ncccc4F)CCC3)nn2)cc1C(=O)O`, for which the “Mean AC1.4” value is on record as “D (D=>20 uM)”.

Consider `Oc1ccc(-c2ccc(NCC3(c4ncccc4F)CCC3)nn2)nc1`, for which the “Mean AC1.4” value is listed as “A (A=<1 uM)”.

Take `O=C1Cc2ccc(-c3ccc(NCC4(c5ncccc5F)CCC4)nn3)cc2N1`: the “Mean AC1.4” value is “B (B=1-10 uM)”.

For `CNC(=O)Nc1cccc(-c2ccc(NCC3(c4ncccc4F)CCC3)nn2)c1`, the “Mean AC1.4” value is “A (A=<1 uM)”.

Turning to `CC(=O)Nc1ccc(-c2ccc(NCC3(c4ncccc4F)CCC3)nn2)cc1`, the “Mean AC1.4” value is “A (A=<1 uM)”.

`CNC(=O)Nc1ccc(-c2ccc(NCC3(c4ncccc4F)CCC3)nn2)cc1`: the “Mean AC1.4” value is listed as “A (A=<1 uM)”.

For `CC(=O)Nc1ncc(-c2ccc(NCC3(c4ncccc4F)CCC3)nn2)cn1`, the “Mean AC1.4” value is listed as “C (C=10-20 uM)”.

`COC(=O)Nc1ncc(-c2ccc(NCC3(c4ncccc4F)CCC3)nn2)cn1`: the “Mean AC1.4” value is “D (D=>20 uM)”.

For `CS(=O)(=O)Nc1cccc(-c2ccc(NC3(c4ccc(F)cc4)CCC3)nn2)c1`, the “Mean AC1.4” value was “A (A=<1 uM)”.

For `OCc1ncccc1-c1ccc(NCC2(c3ncccc3F)CCC2)nn1`, the “Mean AC1.4” value was “C (C=10-20 uM)”.

As for `CS(=O)(=O)Nc1ccc(-c2ccc(NC3(c4ccc(F)cc4)CCC3)nn2)cc1`, the “Mean AC1.4” value is recorded as “B (B=1-10 uM)”.

As for `CS(=O)(=O)Nc1ncc(-c2ccc(NCC3(c4ncccc4F)CCC3)nn2)cn1`, the “Mean AC1.4” value is on record as “D (D=>20 uM)”.

For the molecule `CC(C)(Nc1ccc(-c2ccc(N)nc2)nn1)c1ccccc1`, the “Mean AC1.4” value is “B (B=1-10 uM)”.

`Fc1cccnc1C1(CNc2ccc(-c3ccc(NCC4(c5ncccc5F)CCC4)nn3)nn2)CCC1`: the “Mean AC1.4” value is given as “D (D=>20 uM)”.

For the molecule `NC(=O)Nc1ccc(-c2ccc(NCC3(c4ncccc4F)CC(F)(F)C3)nn2)cc1`, the “Mean AC1.4” value is “A (A=<1 uM)”.

Turning to `NC(=O)Nc1ccc(-c2ccc(NC3(c4ccc(F)cc4)CCC3)nn2)cc1`, the “Mean AC1.4” value is “A (A=<1 uM)”.

As to `NC(=O)Nc1ccc(-c2ccc(NCC3(c4ncccc4F)CCC3)nn2)cc1`, the “Mean AC1.4” value is listed as “A (A=<1 uM)”.

Turning to `NC(=O)Nc1ccc(-c2ccc(NCC3(c4ncccc4F)CCC3)nn2)cn1`, the “Mean AC1.4” value is given as “B (B=1-10 uM)”.

Take `NC(=O)Nc1ncc(-c2ccc(NCC3(c4ncccc4F)CCC3)nn2)cn1`: the “Mean AC1.4” value is “D (D=>20 uM)”.

Take `NC(=O)Nc1n[nH]c2ccc(-c3ccc(NCC4(c5ncccc5F)CCC4)nn3)cc12`: the “Mean AC1.4” value is given as “A (A=<1 uM)”.

`CCOC(=O)c1cc(-c2ccc(NCC3(c4ncccc4F)CCC3)nn2)on1`: the “Mean AC1.4” value is reported as “D (D=>20 uM)”.

As for `CCOC(=O)c1ccc(NCC2(c3ncccc3F)CCC2)nn1`, the “Mean AC1.4” value was “D (D=>20 uM)”.

On to `COC(=O)c1coc(-c2ccc(NCC3(c4ncccc4F)CCC3)nn2)n1`, for which the “Mean AC1.4” value was “D (D=>20 uM)”.

Take `COC(=O)C1CN=C(c2ccc(NCC3(c4ncccc4F)CCC3)nn2)N1` (centres unmarked): the “Mean AC1.4” value is listed as “D (D=>20 uM)”.

Turning to `COC(=O)N1CC(c2ccc(NCC3(c4ncccc4F)CCC3)nn2)C1`, the “Mean AC1.4” value is “D (D=>20 uM)”.

As to `COC(=O)c1ncccc1-c1ccc(NCC2(c3ncccc3F)CCC2)nn1`, the “Mean AC1.4” value is “C (C=10-20 uM)”.

Consider `O=C(OCc1ccccc1)N1CC(c2ccc(NCC3(c4ncccc4F)CCC3)nn2)C1`, for which the “Mean AC1.4” value was “D (D=>20 uM)”.

Regarding `CC(C)(C)OC(=O)N1CCN(c2ncc(-c3ccc(NCC4(c5ncccc5F)CCC4)nn3)cn2)CC1`, the “Mean AC1.4” value is reported as “D (D=>20 uM)”.

Staying with this assay, now noted: median AC1.4 reported as class; procedure of Example 39.
As to `CC(C)(CNc1ccc(-c2cn3c(C(N)=O)csc3n2)nn1)c1ncccc1Cl`, the “Mean AC1.4” value is reported as “A (A=<1 uM)”.
